How the values were obtained:
[1] = test system: H358 cells (ATCC CRL-5807); test: Cell viability assay 1 (CellTiter-Glo), H358 cells; format: cell-based; settings: Homo sapiens, NCI-H358, 48 h, first value of the cell, read-out: Cell Viability H358 (concentration that decreases cell viability by 50%)
Procedure: (§1) Cells (A549 ATCC CCL-185) are cultured in Dulbecco's Modified Eagle's Medium plus 10% foetal calf serum and 2 mM L-glutamine at 37° C., 5% CO2. Cells are plated onto white clear bottom 96-well plates (5000 cells/well in 200 μl media) and left to adhere overnight at 37° C., 5% CO2. Next day, test compound (1 μl at 200× concentration in 100% DMSO) is added to give final test compound concentration 1× in 0.5% DMSO. After 48 h of incubation at 37° C., 5% CO2, 20 μl CellTiter-Glo reagent (Promega G7572) is added into each well. Plates are incubated at room temperature with shaking for 30 min and then luminescence is read using a PheraStar plate reader. The concentration of compounds that decrease cell viability by 50% is calculated from dose response curves generated using Dotmatics data analysis software.
In the H358 cell assay, cells (ATCC CRL-5807) are cultured in RPMI-1640 medium plus 10% foetal calf serum and 2 mM L-glutamine at 37° C., 5% CO2.

[2] = test system: DLD1 cells (ATCC CCL-221); test: Cell viability assay 1 (CellTiter-Glo), DLD1 cells; format: cell-based; settings: Homo sapiens, DLD-1 cells, 48 h, second value of the cell, read-out: Cell Viability DLD-1 (concentration that decreases cell viability by 50%)
Procedure: as §1
In the DLD1 cell assay, cells (ATCC CCL-221) are cultured in RPMI-1640 medium plus 10% foetal calf serum and 2 mM L-glutamine at 37° C., 5% CO2.

[3] = molecular target: T1, GST-human KRas166 (G12V) GPPNHP (Homo sapiens, UniProt P01116, G12V); test: KRas small-molecule screening by SPR (Biacore T200); format: binding; settings: compound 100 uM, 5% DMSO buffer; immobilised GST-KRas166 (G12V) GPPNHP
T1 construct: made in house; host or cells: E. coli C41(DE3)
Summary of the method: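 Biacore T200 screen: compounds at 100 uM final in 5% DMSO buffer (100 mM NaCl, 5 mM MgCl2) over GPPNHP-bound GST-KRas166 G12V captured by anti-GST antibody (10,000–15,000 RU) versus GST-only channel. Expected 1:1 Rmax 63 RU; DMSO solvent correction applied.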

Structure (SMILES) | IC50 [1] | IC50 [2] | SPR Response Units [3]
COc1nc(-c2cccc3c2OCCO3)ccc1Nc1cccc(CNCc2cn[nH]c2)c1 [Example 126, [6-(2,3-Dihydro-benzo[1,4]dioxin-5-yl)-2-methoxy-pyridin-3-yl]-(3-{[(1H-pyrazol-4-ylmethyl)-amino]-methyl}-phenyl)-amine] | 5.4 µM | 5.3 µM | 210 Response Units
CN1CCN(Cc2ccc(C(=O)NCC3COc4cccc(-c5cc(OCc6ccccc6)ccn5)c4O3)o2)CC1 (stereo not drawn) [Example 106, 5-(4-Methyl-piperazin-1-ylmethyl)-furan-2-carboxylic acid [8-(4-benzyloxy-pyridin-2-yl)-2,3-dihydro-benzo[1,4]dioxin-2-ylmethyl]-amide] | 27 µM | 11 µM | 114 Response Units
COc1nc(-c2cccc3c2OCCO3)ccc1Nc1cccc(CN2CCOCC2)c1 [Example 61, [6-(2,3-Dihydro-benzo[1,4]dioxin-5-yl)-2-methoxy-pyridin-3-yl]-(3-morpholin-4-ylmethyl-phenyl)-amine] | 20.1 µM | 12.2 µM | 61 Response Units
COc1nc(-c2cccc3c2OCCO3)ccc1Nc1cccc(C(=O)NCC2CCN(Cc3ccccc3)CC2)c1 [Example 181, N-(1-Benzyl-piperidin-4-ylmethyl)-3-[6-(2,3-dihydro-benzo[1,4]dioxin-5-yl)-2-methoxy-pyridin-3-ylamino]-benzamide] | 4.3 µM | 1.8 µM | 149 Response Units
COc1nc(-c2cccc3c2OCCO3)ccc1Nc1cccc(C(=O)NCC2CCN(C(C)=O)CC2)c1 [Example 167, N-(1-Acetyl-piperidin-4-ylmethyl)-3-[6-(2,3-dihydro-benzo[1,4]dioxin-5-yl)-2-methoxy-pyridin-3-ylamino]-benzamide] | 15.8 µM | 3.5 µM | 73 Response Units
COc1nc(-c2cccc3c2OCCO3)ccc1Nc1ccc(C(=O)NCC2CCC(=O)NC2)cc1 (stereo not drawn) [Example 159] | 24.7 µM | 14.1 µM | 122 Response Units
COc1nc(-c2cccc3c2OCCO3)ccc1Nc1cccc(CN2CCCC2)c1 [Example 60, [6-(2,3-Dihydro-benzo[1,4]dioxin-5-yl)-2-methoxy-pyridin-3-yl]-(3-pyrrolidin-1-ylmethyl-phenyl)-amine] | 11.4 µM | 7.5 µM | 108 Response Units
COc1nc(-c2cccc3c2OCCO3)ccc1Nc1cccc(CNCC2CCN(Cc3ccccc3)CC2)c1 [Example 190, (3-{[(1-Benzyl-piperidin-4-ylmethyl)-amino]-methyl}-phenyl)-[6-(2,3-dihydro-benzo[1,4]dioxin-5-yl)-2-methoxy-pyridin-3-yl]-amine] | 8.6 µM | 1.6 µM | 665 Response Units
COc1nc(-c2cccc3c2OCCO3)ccc1Nc1ccc(CC(=O)N2CCN(C)CC2)cc1 [Example 198, 2-{4-[6-(2,3-Dihydro-benzo[1,4]dioxin-5-yl)-2-methoxy-pyridin-3-ylamino]-phenyl}-1-(4-methyl-piperazin-1-yl)-ethanone] | 1.57 µM | 21.8 µM | 330 Response Units
COc1nc(-c2cccc3c2OCCO3)ccc1Nc1ccc(CNC[C@@H]2COCCN2)cc1 [Example 128, [6-(2,3-Dihydro-benzo[1,4]dioxin-5-yl)-2-methoxy-pyridin-3-yl]-(4-{[((R)-1-morpholin-3-ylmethyl)-amino]-methyl}-phenyl)-amine] | 6.7 µM | 9.5 µM | 99 Response Units
COc1nc(-c2cccc3c2OCCO3)ccc1Nc1ccc(CN2CCN(Cc3cccnc3)CC2)cc1 [Example 199, [6-(2,3-Dihydro-benzo[1,4]dioxin-5-yl)-2-methoxy-pyridin-3-yl]-[4-(4-pyridin-3-ylmethyl-piperazin-1-ylmethyl)-phenyl]-amine] | 24.2 µM | 6.5 µM | 93 Response Units
COc1nc(-c2cccc3c2OCCO3)ccc1Nc1ccc(CC(=O)NCC2CCN(C)CC2)cc1 [Example 197, 2-{4-[6-(2,3-Dihydro-benzo[1,4]dioxin-5-yl)-2-methoxy-pyridin-3-ylamino]-phenyl}-N-(1-methyl-piperidin-4-ylmethyl)-acetamide] | > 150 µM | 15.9 µM | 453 Response Units

Next, values leading:

IC50 [1] | IC50 [2] | SPR Response Units [3] | Structure (SMILES)
27.4 µM | 49.5 µM | 103 Response Units | COc1nc(-c2cccc3c2OCCO3)ccc1Nc1ccc(CNCc2cccc(F)n2)cc1 [Example 188, [6-(2,3-Dihydro-benzo[1,4]dioxin-5-yl)-2-methoxy-pyridin-3-yl]-(4-{[(6-fluoro-pyridin-2-ylmethyl)-amino]-methyl}-phenyl)-amine]
> 100 µM | 19 µM | 105 Response Units | COc1cccc(-c2cccc3c2OC(CNC(=O)c2ccc(CN4CCN(C)CC4)o2)CO3)n1 (stereo not drawn) [Example 43, 5-(4-Methyl-piperazin-1-ylmethyl)-furan-2-carboxylic acid [8-(6-methoxy-pyridin-2-yl)-2,3-dihydro-benzo[1,4]dioxin-2-ylmethyl]-amide]
20.7 µM | 11 µM | 89 Response Units | COc1nc(-c2cccc3c2OCCO3)ccc1Nc1ccc(C(=O)NCc2cn[nH]c2)cc1 [Example 160]
17 µM | 6.1 µM | 67 Response Units | COc1nc(-c2cccc3c2OCCO3)ccc1Nc1cccc(CNc2cccnc2)c1 [Example 143]
20.6 µM | 3.5 µM | 269 Response Units | COc1nc(-c2cccc3c2OCCO3)ccc1Nc1ccc(C(=O)NCC2CCN(C)CC2)cc1 [Example 158, 4-[6-(2,3-Dihydro-benzo[1,4]dioxin-5-yl)-2-methoxy-pyridin-3-ylamino]-N-(1-methyl-piperidin-4-ylmethyl)-benzamide]
79 µM | 5 µM | 127 Response Units | COc1cccc(-c2cccc3c2OC(CNC(=O)c2ccc(OCCN(C)C)cc2)CO3)n1 (stereo not drawn) [Example 39, 4-(2-Dimethylamino-ethoxy)-N-[8-(6-methoxy-pyridin-2-yl)-2,3-dihydro-benzo[1,4]dioxin-2-ylmethyl]-benzamide]
48 µM | 20 µM | 60 Response Units | COc1cccc(-c2cccc3c2O[C@@H](CNC(=O)c2ccc(OCCN(C)C)cc2)CO3)n1 [Example 41, 4-(2-Dimethylamino-ethoxy)-N-[(S)-8-(6-methoxy-pyridin-2-yl)-2,3-dihydrobenzo [1,4]dioxin-2-ylmethyl]-benzamide]
0.6 µM | 0.14 µM | 90 Response Units | CN(C)Cc1cccc(Nc2ccc(-c3cccc4c3OCCO4)[nH]c2=O)c1 [Example 153, 6-(2,3-Dihydro-benzo[1,4]dioxin-5-yl)-3-(3-dimethylaminomethyl-phenylamino)-1H-pyridin-2-one]
18.3 µM | 11.1 µM | 114 Response Units | COc1nc(-c2cccc3c2OCCO3)ccc1Nc1cccc(C(=O)NCc2cc[nH]c(=O)c2)c1 [Example 165, 3-[6-(2,3-Dihydro-benzo[1,4]dioxin-5-yl)-2-methoxy-pyridin-3-ylamino]-N-(2-oxo-1,2-dihydro-pyridin-4-ylmethyl)-benzamide]

From patent publication US12024506B2, “Compounds” (Oxford University Innovation Limited, priority 2018, dated 2024)
